{
  "source": "patent US20060040003A1",
  "about": "“Dietary supplement for supressing appetite, enhancing and extending satiety, improving glycemic control, and stimulant free” (priority 2004, published 2006)",
  "origin": "cited, not measured here",
  "biological_target": "T1, plasma albumin (Homo sapiens, UniProt P02768)",
  "T1 construct": "host or cells: blood plasma (circulation)",
  "T1 sequence (P02768 25-609)": "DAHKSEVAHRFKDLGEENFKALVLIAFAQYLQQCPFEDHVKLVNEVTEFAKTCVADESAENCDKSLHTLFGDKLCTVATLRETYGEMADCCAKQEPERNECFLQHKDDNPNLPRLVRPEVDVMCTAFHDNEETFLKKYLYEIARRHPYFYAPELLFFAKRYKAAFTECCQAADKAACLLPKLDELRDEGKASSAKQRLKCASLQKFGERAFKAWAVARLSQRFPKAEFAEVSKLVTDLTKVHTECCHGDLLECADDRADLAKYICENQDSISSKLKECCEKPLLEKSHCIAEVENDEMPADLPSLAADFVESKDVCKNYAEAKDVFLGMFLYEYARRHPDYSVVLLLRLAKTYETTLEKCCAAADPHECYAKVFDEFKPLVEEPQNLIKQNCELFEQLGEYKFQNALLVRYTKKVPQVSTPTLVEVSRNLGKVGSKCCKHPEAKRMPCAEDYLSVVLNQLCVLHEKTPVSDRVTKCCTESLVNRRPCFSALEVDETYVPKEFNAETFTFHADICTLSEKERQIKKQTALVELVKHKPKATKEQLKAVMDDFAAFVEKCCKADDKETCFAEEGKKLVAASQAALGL",
  "data": [
    {"smiles": "N[C@@H](Cc1c[nH]c2ccccc12)C(=O)O", "note": "[tryptophane]", "values": [
      {"measurement": "circulating in the blood as free tryptophane", "result": 20, "unit": "%"}
    ]}
  ]
}
